This is an account of results in patent US10316039B2, “P2X3 and/or P2X2/3 compounds and methods” (Asana Biosciences, LLC, priority 2013, dated 2019).

For orientation: IC50 means the concentration that gives 50% inhibition.

For one experiment, the target named is T1, P2X2/3 (Homo sapiens, UniProt P56373+Q9UBL9).
T1 sequence (Q9UBL9 1-471): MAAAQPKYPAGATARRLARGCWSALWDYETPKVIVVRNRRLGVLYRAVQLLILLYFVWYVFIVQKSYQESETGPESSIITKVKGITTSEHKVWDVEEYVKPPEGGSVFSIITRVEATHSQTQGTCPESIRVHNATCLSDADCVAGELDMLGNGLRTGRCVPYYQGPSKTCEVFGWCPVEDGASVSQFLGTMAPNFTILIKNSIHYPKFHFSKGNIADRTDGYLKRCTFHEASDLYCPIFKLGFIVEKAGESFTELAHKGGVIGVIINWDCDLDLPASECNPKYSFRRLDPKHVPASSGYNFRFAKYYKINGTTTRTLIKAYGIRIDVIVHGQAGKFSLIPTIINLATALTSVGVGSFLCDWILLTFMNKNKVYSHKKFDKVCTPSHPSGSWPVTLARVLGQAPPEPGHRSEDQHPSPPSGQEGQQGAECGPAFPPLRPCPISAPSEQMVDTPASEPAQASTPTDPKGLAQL
T1 sequence (P56373 1-397): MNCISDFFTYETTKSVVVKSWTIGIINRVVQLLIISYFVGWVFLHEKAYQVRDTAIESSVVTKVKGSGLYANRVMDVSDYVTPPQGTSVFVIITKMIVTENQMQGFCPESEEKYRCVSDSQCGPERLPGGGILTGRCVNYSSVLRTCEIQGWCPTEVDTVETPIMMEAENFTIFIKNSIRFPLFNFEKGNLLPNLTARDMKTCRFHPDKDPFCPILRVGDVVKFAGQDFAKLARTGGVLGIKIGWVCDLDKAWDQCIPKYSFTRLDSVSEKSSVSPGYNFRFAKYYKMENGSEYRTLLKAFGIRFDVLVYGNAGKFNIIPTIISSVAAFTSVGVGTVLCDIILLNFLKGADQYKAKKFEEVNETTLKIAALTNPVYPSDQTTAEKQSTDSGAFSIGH
As to the kind of experiment: P2X2/3 FLIPR intracellular calcium assay. It counts as cell-based. To be noted: agonist at EC75, species (human or rat) not given. In a few lines:
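Stable human P2X2/3 TRex293 cells (doxycycline-induced) loaded with Calcium 4 dye; compounds, 11-point half-log series from 2 mM top stock, preincubated 15 min at RT in HBSS/HEPES pH 7.4 with 1.8 mM CaCl2. Agonist added at EC75; fluorescence change versus no-compound wells gave IC50.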
In general terms: A change in cytosolic calcium serves as a functional read-out for many receptors and channels.

The target of a further experiment is T2, P2X3 (UniProt P56373).
T2 sequence (P56373 1-397): T1 sequence (P56373 1-397)
As to the kind of experiment: P2X3 FLIPR intracellular calcium assay. It counts as cell-based. As to conditions: agonist at EC75, species (human or rat) not given. In a few lines: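 Human P2X3-HEK, human P2X2/3-TRex293, rat P2X2/3-TRex293 or rat P2X3 TRex-CHO cells loaded with Calcium 4 dye (1.8 mM probenecid, pH 7.4).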

Take `Cc1ccc(CNC(=O)c2cc(-c3c(C)noc3C)c3ncc(-c4ccc(C)s4)n3c2)cn1` [Example 106]: the concentration for half-maximal inhibition (IC50) on P2X2/3 was 0.001 to 0.1 µM; at P2X3, > 10 µM.

On to `Cc1noc(C)c1-c1cc(C(=O)N[C@@H](C)c2nnc[nH]2)cn2c(-c3ccc(Cl)s3)cnc12` [Example 107], for which the IC50 on P2X2/3 and on P2X3 was 0.001 to 0.1 µM throughout.

For the compound `CC[C@H](NC(=O)c1cc(-c2c(C)noc2C)c2ncc(-c3ccc(C)s3)n2c1)c1nnc[nH]1` [Example 108], the IC50 on P2X2/3 and at P2X3 was 0.001 to 0.1 µM each time.

As for `Cc1cnc(-c2cnc3c(-c4c(C)noc4C)cc(C(=O)N[C@@H](C)c4nnc[nH]4)cn23)s1` [Example 109], the results for the IC50 at P2X2/3 and on P2X3 were 0.1 to 1 µM and 0.001 to 0.1 µM, respectively.

Regarding `Cc1ccc(-c2cnc3c(-c4c(C)n[nH]c4C)cc(C(=O)N[C@@H](C)c4nnc[nH]4)cn23)s1` [Example 110], the IC50 at P2X2/3 and on P2X3 was 0.001 to 0.1 µM each time.

Consider `Cc1ncc(CNC(=O)c2cc(-c3c(C)n[nH]c3C)c3ncc(-c4ccc(C)s4)n3c2)cn1` [Example 111], for which the IC50 on P2X2/3 is 0.001 to 0.1 µM; at P2X3, > 10 µM.

`Cc1ccc(-c2cnc3c(-c4cnn(CC(N)=O)c4)cc(C(=O)N[C@@H](C)c4nnc[nH]4)cn23)s1` [Example 112]: the results for the IC50 at P2X2/3 and at P2X3 were 1 to 10 µM and 0.1 to 1 µM, respectively.

In the case of `Cc1ccc(CNC(=O)c2cc(N3CCC(C)CC3)c3ncc(-c4ccc(C)s4)n3c2)cn1` [Example 115], the IC50 was in the range of 0.1 to 1 µM on P2X2/3 and 1 to 10 µM at P2X3.

For `Cc1cnc(CNC(=O)c2cc(N3CCC(C)CC3)c3ncc(-c4ccc(C)s4)n3c2)cn1` [Example 116], the IC50 on P2X2/3 is 0.1 to 1 µM; at P2X3, 1 to 10 µM.

Take `CC1CCN(c2cc(C(=O)N[C@@H](C)c3nnc[nH]3)cn3c(-c4ccc(Cl)s4)cnc23)CC1` [Example 118]: the IC50 at P2X2/3 and at P2X3 was 0.1 to 1 µM each time.

As to `Cc1ccc(-c2cnc3c(NC4CCCCC4)cc(C(=O)N[C@@H](C)c4nnc[nH]4)cn23)s1` [Example 121], the IC50 on P2X2/3 and at P2X3 was 0.1 to 1 µM in each case.

Regarding `Cc1ccc(-c2cnc3c(N4CCC(C)CC4)cc(C(=O)NCc4ccn(C)c(=O)c4)cn23)s1` [Example 128], the IC50 was in the range of 0.1 to 1 µM on P2X2/3 and 0.001 to 0.1 µM at P2X3.

For `Cc1ccc(-c2cnc3c(N4CCC(C)(C)CC4)cc(C(=O)N[C@@H](C)c4nnc[nH]4)cn23)s1` [Example 129], the figures for the 50% inhibitory concentration (IC50) on P2X2/3 and on P2X3 were 0.1 to 1 µM and 0.001 to 0.1 µM, respectively.

For the compound `Cc1ccc(-c2cnc3c(N4CCC(F)(F)CC4)cc(C(=O)N[C@@H](C)c4nnc[nH]4)cn23)s1` [Example 130], the IC50 on P2X2/3 and at P2X3 was 0.001 to 0.1 µM throughout.

As for `Cc1ccc(-c2cnc3c(N4CCC(CF)CC4)cc(C(=O)N[C@@H](C)c4nnc[nH]4)cn23)s1` [Example 133], the IC50 at P2X2/3 is 0.1 to 1 µM; on P2X3, 0.001 to 0.1 µM.

For `Cc1ccc(-c2cnc3c(N4CCC(C(F)(F)F)CC4)cc(C(=O)N[C@@H](C)c4nnc[nH]4)cn23)s1` [Example 134], the IC50 at P2X2/3 was 1 to 10 µM; on P2X3 it was 0.001 to 0.1 µM.

As for `Cc1ccc(-c2cnc3c(NC4CCCC4)cc(C(=O)N[C@@H](C)c4nnc[nH]4)cn23)s1` [Example 135], the 50% inhibitory concentration (IC50) at P2X2/3 and at P2X3 was 0.1 to 1 µM throughout.

Consider `Cc1csc(-c2cnc3c(N4CCC(F)(F)CC4)cc(C(=O)N[C@@H](C)c4nnc[nH]4)cn23)c1` [Example 136], for which the figures for the IC50 on P2X2/3 and at P2X3 were 0.1 to 1 µM and 0.001 to 0.1 µM, respectively.

On to `Cc1ccc(-c2cnc3c(N4CCC(F)CC4)cc(C(=O)N[C@@H](C)c4nnc[nH]4)cn23)s1` [Example 137], for which the IC50 is 0.1 to 1 µM on P2X2/3 and 0.001 to 0.1 µM at P2X3.

With `COC1CCN(c2cc(C(=O)N[C@@H](C)c3nnc[nH]3)cn3c(-c4ccc(C)s4)cnc23)C1` (stereo partly shown) [Example 138], the half-inhibitory concentration (IC50) at P2X2/3 was 0.1 to 1 µM; at P2X3, 0.001 to 0.1 µM.

With `COC1(C)CCN(c2cc(C(=O)N[C@@H](C)c3nnc[nH]3)cn3c(-c4ccc(C)s4)cnc23)CC1` [Example 139], the IC50 on P2X2/3 was 0.1 to 1 µM; at P2X3, 0.001 to 0.1 µM.

With `COC1CCN(c2cc(C(=O)N[C@@H](C)c3nnc[nH]3)cn3c(-c4ccc(C)s4)cnc23)CC1` [Example 140], the half-maximal inhibitory concentration (IC50) was in the range of 0.1 to 1 µM on P2X2/3 and 0.001 to 0.1 µM at P2X3.

Turning to `COC1CCCN(c2cc(C(=O)N[C@@H](C)c3nnc[nH]3)cn3c(-c4ccc(C)s4)cnc23)C1` (stereo partly shown) [Example 141], the figures for the IC50 on P2X2/3 and at P2X3 were 0.1 to 1 µM and 0.001 to 0.1 µM, respectively.

As for `COC1(C)CCN(c2cc(C(=O)N[C@@H](C)c3nnc[nH]3)cn3c(-c4ccc(C)s4)cnc23)C1` (stereo partly shown) [Example 142], the half-inhibitory concentration (IC50) fell in the range of 0.1 to 1 µM on P2X2/3 and 0.001 to 0.1 µM on P2X3.

In the case of `CC[C@H](NC(=O)c1cc(N2CCC(F)(F)CC2)c2ncc(-c3ccc(C)s3)n2c1)c1nnc[nH]1` [Example 144], the results for the half-maximal inhibitory concentration (IC50) on P2X2/3 and on P2X3 were 0.001 to 0.1 µM and 0.1 to 1 µM, respectively.

As for `Cc1ccc(-c2cnc3c(N4CCC(F)(F)CC4)cc(C(=O)N[C@H](c4nnc[nH]4)C(C)C)cn23)s1` [Example 145], the IC50 at P2X2/3 fell in the range of 0.1 to 1 µM; at P2X3, 1 to 10 µM.

As for `CC[C@H](NC(=O)c1cc(N2CCC(OC)CC2)c2ncc(-c3ccc(C)s3)n2c1)c1nnc[nH]1` [Example 146], the IC50 on P2X2/3 was 0.1 to 1 µM; on P2X3 it was 0.001 to 0.1 µM.

As to `Cc1ccc(CNC(=O)c2cc(N3CCC(C)(C(N)=O)CC3)c3ncc(-c4ccc(C)s4)n3c2)cn1` [Example 148], the IC50 on P2X2/3 and on P2X3 was 0.001 to 0.1 µM throughout.

For `Cc1cccc(-c2cnc3c(N4CCC(C)CC4)cc(C(=O)N[C@@H](C)c4ncn[nH]4)cn23)c1` [Example 149], the IC50 on P2X2/3 fell in the range of 1 to 10 µM; on P2X3, 0.1 to 1 µM.

In the case of `Cc1ccccc1-c1cnc2c(N3CCC(C)CC3)cc(C(=O)NCc3ccc(C)[n+]([O-])c3)cn12` [Example 150], the IC50 at P2X2/3 lay within 0.1 to 1 µM; at P2X3, 0.001 to 0.1 µM.

For the compound `Cc1ccc(CNC(=O)c2cc(-n3nnnc3C(C)C)c3ncc(-c4ccc(C)s4)n3c2)cn1` [Example 151], the IC50 at P2X2/3 fell in the range of 0.1 to 1 µM; at P2X3, 0.001 to 0.1 µM.

For the compound `Cc1ccc(-c2cnc3c(-n4nnnc4C(C)C)cc(C(=O)NCc4ccc(C(F)(F)F)nc4)cn23)s1` [Example 152], the figures for the IC50 at P2X2/3 and at P2X3 were 0.1 to 1 µM and > 10 µM, respectively.

With `CCc1nnnn1-c1cc(C(=O)NCc2ccc(C)nc2)cn2c(-c3ccc(C)s3)cnc12` [Example 153], the values for the IC50 at P2X2/3 and at P2X3 were 0.001 to 0.1 µM and > 10 µM, respectively.

In the case of `CCc1nnnn1-c1cc(C(=O)NCc2ccc(C3CC3)nc2)cn2c(-c3ccc(C)s3)cnc12` [Example 154], the IC50 on P2X2/3 and on P2X3 was 0.1 to 1 µM each time.

For the compound `Cc1ccc(CNC(=O)c2cc(-n3nnnc3C3CCC3)c3ncc(-c4ccc(C)s4)n3c2)cn1` [Example 155], the figures for the IC50 on P2X2/3 and at P2X3 were 0.001 to 0.1 µM and > 10 µM, respectively.

Regarding `Cc1ccc(CNC(=O)c2cc(-n3nnnc3CC3CC3)c3ncc(-c4ccc(C)s4)n3c2)cn1` [Example 156], the half-inhibitory concentration (IC50) at P2X2/3 is 0.001 to 0.1 µM; at P2X3, > 10 µM.

For the compound `Cc1ccc(CNC(=O)c2cc(-n3nnnc3C)c3ncc(-c4ccc(C)s4)n3c2)cn1` [Example 157], the IC50 on P2X2/3 was in the range of 0.1 to 1 µM; on P2X3, 0.001 to 0.1 µM.

Regarding `CCCc1nnnn1-c1cc(C(=O)NCc2ccc(C)nc2)cn2c(-c3ccc(C)s3)cnc12` [Example 158], the 50% inhibitory concentration (IC50) at P2X2/3 is 0.001 to 0.1 µM; on P2X3 it was > 10 µM.

For `Cc1ccc(-c2cnc3c(-n4nnnc4C(C)C)cc(C(=O)NC(C)c4cnccn4)cn23)s1` (stereo not shown) [Example 159], the IC50 at P2X2/3 is 1 to 10 µM; on P2X3, 0.1 to 1 µM.

As to `Cc1ccc(-c2cnc3c(-n4nnnc4C4CCC4)cc(C(=O)NC(C)c4cnccn4)cn23)s1` (stereo not shown) [Example 160], the IC50 at P2X2/3 was 0.1 to 1 µM; at P2X3 it was > 10 µM.

Regarding `Cc1ccc(-c2cnc3c(-n4nnnc4C4CCC4)cc(C(=O)NCc4ccn(C)c(=O)c4)cn23)s1` [Example 161], the IC50 on P2X2/3 was 0.001 to 0.1 µM; at P2X3, > 10 µM.

In the case of `CCc1nnnn1-c1cc(C(=O)NC(C)c2cnccn2)cn2c(-c3ccc(C)s3)cnc12` (stereo not shown) [Example 162], the IC50 was in the range of 1 to 10 µM on P2X2/3 and 0.001 to 0.1 µM on P2X3.

For the compound `Cc1cnc(CNC(=O)c2cc(-n3nnnc3C3CCC3)c3ncc(-c4ccc(C)s4)n3c2)cn1` [Example 164], the IC50 was 0.001 to 0.1 µM on P2X2/3 and > 10 µM on P2X3.

On to `Cc1ccc(-c2cnc3c(-n4nnnc4CC4CC4)cc(C(=O)N[C@@H](C)c4nnc[nH]4)cn23)s1` [Example 166], for which the IC50 at P2X2/3 and at P2X3 was 0.001 to 0.1 µM each time.
